One data set has as its target T1, NMDA receptor (Rattus norvegicus, UniProt P35439+Q00960).
T1 construct: Membranes were prepared by homogenization of the whole brain minus cerebellum and medulla oblongata; from tissue; host or cells: rat whole brain minus cerebellum and medulla oblongata, membranes
The experiment in a line: 3H-[R-(R*,S*)]-a-(4-Hydroxy-phenyl)-b-methyl-4-(phenyl-methyl)-1-piperidine propanol binding (displacement, rat brain membranes). As to conditions: displacement of 5 nM 3H-radioligand, rat whole brain membranes minus cerebellum and medulla oblongata, 2 hours at 4° C. How it is done:
^3H-[R-(R*,S*)]-a-(4-Hydroxy-phenyl)-b-methyl-4-(phenyl-methyl)-1-piperidine propanol binding
Male Füllinsdorf albino rats weighing between 150-200 g were used. Membranes were prepared by homogenization of the whole brain minus cerebellum and medulla oblongata with a Polytron (10.000 rpm, 30 seconds), in 25 volume of a cold Tris-HCl 50 mM, EDTA 10 mM, pH 7.1 buffer. The homogenate was centrifuged at 48,000 g for 10 minutes at 4° C. The pellet was resuspended using the Polytron in the same volume of buffer and the homogenate was incubated at 37° C. for 10 minutes. After centrifugation the pellet was homogenized in the same buffer and frozen at −80° C. for at least 16 hours but not more than 10 days. For the binding assay the homogenate was thawed at 37° C., centrifuged and the pellet was washed three times as above in a Tris-HCl 5 mM, pH 7.5 cold buffer. The final pellet was resuspended in the same buffer and used at a final concentration of […] of protein/ml.
[R-(R*,S*)]-α-(4-Hydroxy-phenyl)-β-methyl-4-(phenyl-methyl)-1-piperidine propanol is a compound known to bind selectively to the NMDA receptor (J. Neurochem., Vol. 70., No. 5, 1998). ^3H-[R-(R*,S*)]-α-(4-Hydroxy-phenyl)-β-methyl-4-(phenyl-methyl)-1-piperidine propanol binding experiments were performed using a Tris-HCl 50 mM, pH 7.4 buffer. For displacement experiments 5 nM of 3H-[R-(R*,S*)]-a-(4-Hydroxy-phenyl)-b-methyl-4-(phenyl-methyl)-1-piperidine propanol were used and non specific binding was measured using 10 mM of tetrahydroisoquinoline and usually it accounts for 10% of the total. The incubation time was 2 hours at 4° C. and the assay was stopped by filtration on Whatmann GF/B glass fiber filters (Unifilter-96, Packard, Zürich, Switzerland). The filters were washed 5 times with cold buffer. The radioactivity on the filter was counted on a Packard Top-count microplate scintillation counter after addition of […] of microscint 40 (Canberra Packard S.A., Zürich, Switzerland).
The effects of compounds were measured using a minimum of 8 concentrations and repeated at least once. The pooled normalized values were analyzed using a non-linear regression calculation program which provide IC50 with their relative upper and lower 95% confidence limits.

Structures are written as SMILES. Where a name gives a salt, the structure may show the parent alone.

T1 sequence (Q00960 27-1482, other chains not shown): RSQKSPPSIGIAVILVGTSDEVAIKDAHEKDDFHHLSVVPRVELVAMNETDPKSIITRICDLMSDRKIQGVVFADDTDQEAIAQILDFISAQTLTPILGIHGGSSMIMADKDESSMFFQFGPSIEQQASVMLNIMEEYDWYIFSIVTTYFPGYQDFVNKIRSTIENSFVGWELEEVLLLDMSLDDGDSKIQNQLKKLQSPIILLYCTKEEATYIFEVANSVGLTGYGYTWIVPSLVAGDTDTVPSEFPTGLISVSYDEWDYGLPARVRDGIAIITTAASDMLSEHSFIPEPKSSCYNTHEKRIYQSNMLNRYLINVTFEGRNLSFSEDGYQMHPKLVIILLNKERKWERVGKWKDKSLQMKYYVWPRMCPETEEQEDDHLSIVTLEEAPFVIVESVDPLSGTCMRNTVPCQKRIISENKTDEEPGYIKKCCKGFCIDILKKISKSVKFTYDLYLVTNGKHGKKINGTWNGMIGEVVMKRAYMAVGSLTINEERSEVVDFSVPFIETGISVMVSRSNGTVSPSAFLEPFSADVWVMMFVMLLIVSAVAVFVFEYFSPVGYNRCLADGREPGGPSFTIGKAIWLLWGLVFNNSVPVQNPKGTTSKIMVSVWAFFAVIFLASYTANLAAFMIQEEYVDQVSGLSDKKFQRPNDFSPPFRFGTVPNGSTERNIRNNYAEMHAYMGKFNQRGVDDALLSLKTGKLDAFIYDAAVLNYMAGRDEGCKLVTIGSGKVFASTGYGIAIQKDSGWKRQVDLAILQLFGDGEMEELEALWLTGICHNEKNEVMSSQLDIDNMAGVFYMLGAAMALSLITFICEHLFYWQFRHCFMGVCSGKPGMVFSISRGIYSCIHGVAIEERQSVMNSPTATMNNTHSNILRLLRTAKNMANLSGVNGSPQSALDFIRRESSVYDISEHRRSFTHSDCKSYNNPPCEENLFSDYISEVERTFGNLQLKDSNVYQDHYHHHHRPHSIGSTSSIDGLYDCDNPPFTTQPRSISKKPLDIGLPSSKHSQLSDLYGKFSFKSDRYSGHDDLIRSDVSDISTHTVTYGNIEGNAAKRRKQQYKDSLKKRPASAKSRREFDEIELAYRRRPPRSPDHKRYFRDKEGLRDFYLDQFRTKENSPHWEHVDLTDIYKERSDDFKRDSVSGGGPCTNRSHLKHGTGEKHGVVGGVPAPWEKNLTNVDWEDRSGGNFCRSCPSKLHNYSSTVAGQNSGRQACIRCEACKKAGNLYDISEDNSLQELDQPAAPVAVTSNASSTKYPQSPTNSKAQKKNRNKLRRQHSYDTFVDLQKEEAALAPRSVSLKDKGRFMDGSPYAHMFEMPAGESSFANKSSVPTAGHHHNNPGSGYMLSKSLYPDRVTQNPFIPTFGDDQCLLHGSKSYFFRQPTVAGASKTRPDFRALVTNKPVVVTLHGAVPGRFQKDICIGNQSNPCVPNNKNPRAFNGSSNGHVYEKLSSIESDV

One may read the melting point as the temperature, or range, at which the solid turns liquid. Regarding `Cc1cc(N2CCc3ccccc3C2)c2ccccc2n1.Cl`, the melting point was 210 to 211 °C.
In general, IC50 refers to the midpoint of a concentration-inhibition curve. With `Cc1ccc2c(N3CCc4ccccc4C3)ccnc2c1.Cl` [Example 13, 4-(3,4-Dihydro-1H-isoquinolin-2-yl)-7-methyl-quinoline hydrochloride], the melting point fell in the range of 251 to 252 °C. Besides, on NMDA receptor, the IC50 was found to be 190 nM.
`Fc1ccc2nccc(N3CCc4ccccc4C3)c2c1` [Example 18, 4-(3,4-Dihydro-1H-isoquinolin-2-yl)-6-fluoro-quinoline hydrochloride] came in with an IC50 on NMDA receptor of 890 nM.
`COc1cccc2c(N3CCc4ccccc4C3)ccnc12.Cl` had a melting point of 240 °C.
Same read-out and setting: under `Cl.c1ccc2c(c1)CN(c1ccnc3ccccc13)C2` stands 264 to 267 °C.
On NMDA receptor, `Fc1cccc2c(N3CCc4ccccc4C3)ccnc12` [Example 16, 4-(3,4-Dihydro-1H-isoquinolin-2-yl)-8-fluoro-quinoline hydrochloride] had a half-maximal inhibitory concentration (IC50) of 650 nM.
Molecule `Cl.O[C@@H]1CCN(c2cc(N3CCc4ccccc4C3)c3ccccc3n2)C1` [Example 4, (R)-1-[4-(3,4-Dihydro-1H-isoquinolin-2-yl)-quinolin-2-yl]-pyrrolidin-3-ol hydrochloride] gave a melting point of 270 to 274 °C. For the same molecule, at NMDA receptor, the IC50 came out at 170 nM.
In the case of `Cl.c1ccc2c(c1)CCN(c1ccnc3ccccc13)C2`, the melting point worked out at 200 °C.
`Cl.Clc1ccc2c(c1)CN(c1ccnc3ccccc13)C2` gave a melting point of 270 to 275 °C.
As for `Clc1ccc2c(N3CCc4ccccc4C3)ccnc2c1` [Example 15, 7-Chloro-4-(3,4-dihydro-1H-isoquinolin-2-yl)-quinoline hydrochloride], the IC50 at NMDA receptor was 320 nM.
`OC[C@H]1CCCN1c1cc(N2CCc3ccccc3C2)c2ccccc2n1` [Example 5, (R)-{1-[4-(3,4-Dihydro-1H-isoquinolin-2-yl)-quinolin-2-yl]-pyrrolidin-2-yl}-methanol]: the melting point lay in the range of 74 to 80 °C. The molecule further had an IC50 on NMDA receptor of 290 nM.
Molecule `OCCNc1cc(N2CCc3ccccc3C2)c2ccccc2n1` [Example 2, 2-[4-(3,4-Dihydro-1H-isoquinolin-2-yl)-quinolin-2-ylamino]-ethanol hydrochloride] returned a half-maximal inhibitory concentration (IC50) at NMDA receptor of 58 nM.

The values above are taken from US6339093B1, “Isoquinoline derivatives” (Hoffmann-la Roche Inc., priority 1999, dated 2002).
